Assay results taken from ChEMBL document CHEMBL1671670, “CS-8958, a prodrug of the novel neuraminidase inhibitor R-125489, demonstrates a favorable long-retention profile in the mouse respiratory tract” (Antimicrob Agents Chemother, 2009).

Columns and labels:
Influenza A virus = assay: Antiviral activity against Influenza A virus (A/Puerto Rico/8/1934(H1N1)); format: functional, organism-based
Lung [1] = assay: Tmax in BALB/cAnNCrlCrlj mouse lung at 0.5 umol/kg administered as [14C]labeled compound intranasally as single dose; format: ADME, organism-based; conditions: in vivo, inhaled_or_intranasal
Lung [2] = assay: Half life in BALB/cAnNCrlCrlj mouse lung at 0.5 umol/kg administered as [14C]labeled compound intranasally as single dose; format: ADME, organism-based; conditions: in vivo, inhaled_or_intranasal
Lung [3] = assay: Cmax in BALB/cAnNCrlCrlj mouse lung assessed as compound concentration per gram of tissue at 0.5 umol/kg administered as [14C]labeled compound intranasally as single dose; format: ADME, organism-based; set-up: dose 0.5 umol/kg, route nasal; conditions: in vivo, inhaled_or_intranasal
Lung [4] = assay: Drug level in BALB/cAnNCrlCrlj mouse lung at 0.5 umol/kg administered as [14C]labeled compound intranasally as single dose measured 120 hrs post dose; format: ADME, tissue-based; conditions: in vivo, inhaled_or_intranasal
[5] = Biodistribution in trachea of BALB/cAnNCrlCrlj mouse at 0.5 umol/kg administered as [14C]labeled compound intranasally as single dose measured 0.25 hrs post dose by liquid scintillation counting; format: ADME, organism-based; conditions: in vivo, inhaled_or_intranasal
Lung [6] = assay: Biodistribution in lung of BALB/cAnNCrlCrlj mouse at 0.5 umol/kg administered as [14C]labeled compound intranasally as single dose measured 0.25 hrs post dose by liquid scintillation counting; format: ADME, organism-based; conditions: in vivo, inhaled_or_intranasal
[7] = Prodrug conversion in BALB/cAnNCrlCrlj mouse trachea assessed as compound conversion to R-125489 at 10 uM in presence of esterase inhibitor DFP administered 10 mins before compound addition relative to untreated control; format: ADME, tissue-based
[8] = Prodrug conversion in BALB/cAnNCrlCrlj mouse lung S9 fraction assessed as compound conversion to R-125489 at 10 uM in presence of esterase inhibitor eserine administered 10 mins before compound addition relative to untreated control; format: ADME; conditions: s9, 10 min
[9] = Prodrug conversion in BALB/cAnNCrlCrlj mouse lung S9 fraction assessed as compound conversion to R-125489 at 10 uM in presence of esterase inhibitor DFP administered 10 mins before compound addition relative to untreated control; format: ADME; conditions: s9, 10 min
[10] = Prodrug conversion in BALB/cAnNCrlCrlj mouse lung S9 fraction assessed as compound conversion to R-125489 at 10 uM in presence of esterase inhibitor BNPP administered 10 mins before compound addition relative to untreated control; format: ADME; conditions: s9, 10 min
[11] = Prodrug conversion in BALB/cAnNCrlCrlj mouse lung S9 fraction assessed as compound conversion to R-125489 at 10 uM relative to untreated control; format: ADME; conditions: s9, 10 µM
[12] = Prodrug conversion in BALB/cAnNCrlCrlj mouse lung S9 fraction assessed as compound conversion to R-125489 at 10 uM in presence of esterase inhibitor EDTA administered 10 mins before compound addition relative to untreated control; format: ADME; conditions: s9, 10 min
[13] = Prodrug conversion in BALB/cAnNCrlCrlj mouse lung S9 fraction assessed as compound conversion to R-125489 at 10 uM in presence of esterase inhibitor DTNB administered 10 mins before compound addition relative to untreated control; format: ADME; conditions: s9, 10 min
[14] = Prodrug conversion in BALB/cAnNCrlCrlj mouse lung S9 fraction assessed as compound conversion to R-125489 at 10 uM in presence of esterase inhibitor PCMB administered 10 mins before compound addition relative to untreated control; format: ADME; conditions: s9, 10 min
[15] = Prodrug conversion in BALB/cAnNCrlCrlj mouse trachea assessed as compound conversion to R-125489 at 10 uM relative to untreated control; format: ADME, tissue-based
[16] = Biodistribution in respiratory tract of BALB/cAnNCrlCrlj mouse at 0.5 umol/kg administered as [14C]labeled compound intranasally as single dose measured 72 hrs post dose by whole body autoradiography; format: ADME, organism-based; conditions: in vivo, inhaled_or_intranasal
[17] = Biodistribution in respiratory tract of BALB/cAnNCrlCrlj mouse at 0.5 umol/kg administered as [14C]labeled compound intranasally as single dose measured 6 hrs post dose by whole body autoradiography; format: ADME, organism-based; conditions: in vivo, inhaled_or_intranasal
Lung [18] = assay: Biodistribution in lung of BALB/cAnNCrlCrlj mouse at 0.5 umol/kg administered as [14C]labeled compound intranasally as single dose measured 24 hrs post dose by liquid scintillation counting; format: ADME, organism-based; conditions: in vivo, inhaled_or_intranasal
[19] = Biodistribution in trachea of BALB/cAnNCrlCrlj mouse at 0.5 umol/kg administered as [14C]labeled compound intranasally as single dose measured 24 hrs post dose by liquid scintillation counting; format: ADME, organism-based; conditions: in vivo, inhaled_or_intranasal

## CO[C@@H]([C@@H]1OC(C(=O)O)=C[C@H](NC(=N)N)[C@H]1NC(C)=O)[C@H](O)CO [LANINAMIVIR]
Influenza A virus
  IC50: 5.97 nM
Lung [1]
  Tmax: 3 h
Lung [2]
  t1/2: 41.4 h
Lung [3]
  Cmax: 6.41 nmol/g
Lung [4]
  Drug uptake: 0.915 nmol/g

## CO[C@@H]([C@@H]1OC(C(=O)O)=C[C@H](N[14C](=N)N)[C@H]1NC(C)=O)[C@H](O)CO
[5]
  Drug uptake: 4 nmolequiv/g
Lung [6]
  Drug uptake: 30 nmolequiv/g

## CCCCCCCC(=O)OC[C@@H](O)[C@@H](OC)[C@@H]1OC(C(=O)O)=C[C@H](NC(=N)N)[C@H]1NC(C)=O [LANINAMIVIR OCTANOATE]
[7]
  Activity: 44.1%
[8]
  Activity: 31.9%
[9]
  Activity: 13.6%
[10]
  Activity: 21%
[11]
  Activity: 100%
[12]
  Activity: 130.7%
Lung [2]
  t1/2: 0.833 h
[13]
  Activity: 42%
[14]
  Activity: 106.5%
[15]
  Activity: 100%

## CC(=O)N[C@H]1[C@H]([C@H](O)[C@H](O)CO)OC(C(=O)O)=C[C@@H]1N[14C](=N)N [[14C]-ZANAMIVIR]
[5]
  Drug uptake: 4 nmolequiv/g
Lung [6]
  Drug uptake: 30 nmolequiv/g

## CCCCCCCC(=O)OC[C@@H](O)[C@@H](OC)[C@@H]1OC(C(=O)O)=C[C@H](N[14C](=N)N)[C@H]1NC(C)=O
[16]
  Drug uptake: Active
[5]
  Drug uptake: 4 nmolequiv/g
[17]
  Drug uptake: Active
Lung [6]
  Drug uptake: 30 nmolequiv/g
Lung [18]
  Drug uptake: 5.57 nmolequiv/g
[19]
  Drug uptake: 0.99 nmolequiv/g
